What was measured:
male mice of dd-strain = conditions: mouse, in vivo, po, 7 days
Description: A test compound was orally administered to male mice (body weight: 20±1 g) of dd-strain which comprises three mice per group. State of death after 7 days from the administration was observed and the minimum lethal dose (MLD) was determined.

[1] = test system: convulsion induced by administration of reserpine and electric stimulation; experiment: Antiepileptic action: tonic extended convulsion induced by reserpine and electric stimulation; format: in vivo; conditions: male ddY mice treated with reserpine 5 mg/kg i.p.; test compound 30 mg/kg orally; electric stimulation 1,000 V, 50 mA, 0.2 second after one hour; compared with reserpine + solvent group, p<0.01 (Aspine-Welch test)
Description: Convulsion induced by administration of reserpine and electric stimulation has been known as an effective model for epilepsy [European Journal of Pharmacology, 1994, volume 23, page 260]. Male mice (body weight: 15 to 17 g; Nippon SLC, Hamamatsu) of ddY strain of four weeks age were subjected to a preliminary breeding and 65 mice where body weight became 22.4 to 26.0 g were used for the experiment. Fifteen mice among the above were used as a non-treated group. Reserpine (Apoplon Injection 1 mg; Daiichi Seiyaku) diluted with distilled water for injection (Otsuka Seiyaku, Naruto) was intraperitoneally administered (treatment with reserpine) at the dose of 5 mg/kg to each of the remaining 50 mice and the experiment was carried out after 18 to 24 hours from the administration. Among the mice subjected to the treatment with reserpine, two groups each comprising ten mice were randomly selected and used as a group administered with a solvent and a group administered with the test compound. The test compound was used as a suspension of a 0.5% MC solution [distilled water for injection containing 0.5% methyl cellulose 400 cP (Wako Pure Chemicals)] and Compound (I) was orally administered at the dose of 30 mg/kg (10 mL/kg in terms of volume) to the mice treated with reserpine (a group administered with the test compound). […]

Compound | minimum lethal dose (MLD) (male mice of dd-strain) | duration of convulsion (tonic extended convulsion) [1]
COc1cc(/C=C/c2nc3c(c(=O)n(C)c(=O)n3C)n2C)cc(OC)c1OC [Compound 1, (E)-8-(3,4,5-Trimethoxystyryl)caffeine] | > 1,000 mg/kg | significant shortening action
CCCn1c(=O)c2c(nc(/C=C/c3ccc(OC)c(OC)c3)n2C)n(CCC)c1=O [Compound 3, (E)-8-(3,4-Dimethoxystyryl)-7-methyl-1,3-dipropylxanthine] | – | significant shortening action
